Activity calls are given as the source filed them. No cut-off for these calls is given here.
Assays:
Histone deacetylase 1 = Histone deacetylase 1 (Homo sapiens, UniProt Q13547); test: Inhibition of recombinant human HDAC1 using Boc-Lys (acetyl)-AMC as substrate preincubated with compound for 1 hr followed by substrate addition and measured after 30 mins by microplate reader assay
Histone deacetylase 2 = Histone deacetylase 2 (Homo sapiens, UniProt Q92769); test: Inhibition of recombinant human HDAC2 using Boc-Lys (acetyl)-AMC as substrate preincubated with compound for 1 hr followed by substrate addition and measured after 30 mins by microplate reader assay
Histone deacetylase 7 = Histone deacetylase 7 (Homo sapiens, UniProt Q8WUI4); test: Inhibition of recombinant human HDAC7 using Boc-Lys (trifluroacetyl)-AMC as substrate preincubated with compound for 1 hr followed by substrate addition and measured after 30 mins by microplate reader assay
Histone deacetylase 9 = Histone deacetylase 9 (Homo sapiens, UniProt Q9UKV0); test: Inhibition of recombinant human HDAC9 using Boc-Lys (trifluroacetyl)-AMC as substrate preincubated with compound for 1 hr followed by substrate addition and measured after 30 mins by microplate reader assay
[1] = target: T1, Signal transducer and activator of transcription 3 (Homo sapiens, UniProt P40763); test: Binding affinity to STAT3 (unknown origin) assessed as dissociation constant by SPR assay
[2] = Binding affinity to STAT2 (unknown origin) assessed as dissociation constant by SPR assay; set-up: species or system Homo sapiens
[3] = target: Signal transducer and activator of transcription 6 (Homo sapiens, UniProt P42226); test: Binding affinity to STAT6 (unknown origin) assessed as dissociation constant by SPR assay
[4] = target: T1, Signal transducer and activator of transcription 3; test: Binding affinity to recombinant human STAT3 using 5-FAM-G(pTyr)LPQTV-NH2 as substrate preincubated with compound for 1 hr followed by substrate addition and measured after 30 mins by fluorescent polarization based binding assay
A549 [5] = test: cells; format: functional, cell-based; conditions: Homo sapiens, A549, 72 h
Description: Antiproliferative activity against human A549 cells assessed as inhibition of cell proliferation incubated for 72 hrs by CCK-8 assay

HeLa [6] = test: cells; format: functional, cell-based; conditions: Homo sapiens, 72 h
Description: Antiproliferative activity against human Hela cells assessed as inhibition of cell proliferation incubated for 72 hrs by CCK-8 assay

HepG2 = test: Antiproliferative activity against human HepG2 cells assessed as inhibition of cell proliferation incubated for 72 hrs by CCK-8 assay; format: functional, cell-based; conditions: HepG2, 72 h
[7] = target: Class 1 histone deacetylase (Homo sapiens) (UniProt Q13547+O15379+Q92769+Q9BY41); test: Inhibition of class 1 HDAC in human A549 cells assessed as increase in Ac-histone H3 level at 0.5 uM incubated for 12 hrs by Western blot analysis; format: cell-based
A549 [8] = test: Induction of autophagy in human A549 cells transfected with mRFP-GFP-LC3 assessed as decrease in P62 protein level at 0.5 uM incubated for 12 hrs by Western blot analysis; format: functional, cell-based
A549 [9] = test: Induction of autophagy in human A549 cells transfected with mRFP-GFP-LC3 assessed as increase in LC3-II protein level at 0.5 uM incubated for 12 hrs by Western blot analysis; format: functional, cell-based
A549 [10] = test: Induction of autophagy in human A549 cells transfected with mRFP-GFP-LC3 at 0.5 uM incubated for 24 hrs by confocal microscopic analysis; format: functional, cell-based
A549 [11] = test: Induction of apoptosis in human A549 cells assessed as viable cells at 2 uM incubated for 24 hrs by Annexin V-FITC/PI staining based flow cytometric analysis (reference value: 95.08%); format: functional; conditions: Homo sapiens, A549, read-out: Activity
A549 [12] = test: Induction of apoptosis in human A549 cells at 2 uM incubated for 24 hrs by Annexin V-FITC/PI staining based flow cytometric analysis; format: functional
A549 [13] = test: Induction of apoptosis in human A549 cells at 4 uM incubated for 24 hrs by Annexin V-FITC/PI staining based flow cytometric analysis; format: functional
A549 [14] = test: In vivo antitumor activity against human A549 cells xenografted in female BALB/c nu/nu mouse assessed as tumor volume at 2.5 mg/kg, iv administered every 3 days and measured on 18 day relative to control; format: functional; conditions: time 3 day
[15] = Toxicity in female BALB/c nu/nu mouse xenografted with human A549 cells assessed as effect on body weight at 2.5 mg/kg, iv and measured regularly; format: organism-based; conditions: in vivo
[16] = Toxicity in female BALB/c nu/nu mouse xenografted with human A549 cells assessed as effect on kidney at 2.5 mg/kg, iv by H and E staining based analysis; format: organism-based; conditions: in vivo
A549 [17] = test: Anticancer activity against human A549 cells assessed as cell viability incubated for 72 hrs using self assembled nanoparticle as source of compound by CCK-8 assay; format: functional, cell-based; conditions: A549, 72 h
HCT-116 = test: Anticancer activity against human HCT-116 cells assessed as cell viability incubated for 72 hrs using self assembled nanoparticle as source of compound by CCK-8 assay; format: functional, cell-based; conditions: HCT-116, 72 h
HeLa [18] = test: Anticancer activity against human HeLa cells assessed as cell viability incubated for 72 hrs using self assembled nanoparticle as source of compound by CCK-8 assay; format: functional, cell-based
[19] = Drug uptake in human A549 cells assessed as increase in red fluorescence incubated for 4 hrs using chlorine e6 loaded self assembled nanoparticle as source of compound by fluorescence based flow cytometric analysis; format: ADME, cell-based; conditions: a549, 4 h
[20] = Biodistribution in heart of nude mouse xenografted with A549 cells at 5 mg/kg, iv using chlorine e6 loaded self-assembled nanoparticle as source of compound incubated for 24 hrs by ex-vivo fluorescence based LC-MS/MS analysis; format: ADME, organism-based
[21] = Biodistribution in spleen of nude mouse xenografted with A549 cells at 5 mg/kg, iv using chlorine e6 loaded self-assembled nanoparticle as source of compound incubated for 24 hrs by ex-vivo fluorescence based LC-MS/MS analysis; format: ADME, organism-based
A549 [22] = test: In vivo antitumor activity against human A549 cells xenografted in female BALB/c nu/nu mouse assessed as Ac-Histone H3 at 5 mg/kg, iv administered every 3 days for 18 days by Western blotting analysis; conditions: time 3.0 day
A549 [23] = test: In vivo antitumor activity against human A549 cells xenografted in female BALB/c nu/nu mouse assessed as reduction in tumor weight at 5 mg/kg, iv administered every 3 days for 18 days using self assembled nanoparticle as source of compound and measured every 3 days; conditions: time 3.0 day

T1 sequence (P40763 whole entry): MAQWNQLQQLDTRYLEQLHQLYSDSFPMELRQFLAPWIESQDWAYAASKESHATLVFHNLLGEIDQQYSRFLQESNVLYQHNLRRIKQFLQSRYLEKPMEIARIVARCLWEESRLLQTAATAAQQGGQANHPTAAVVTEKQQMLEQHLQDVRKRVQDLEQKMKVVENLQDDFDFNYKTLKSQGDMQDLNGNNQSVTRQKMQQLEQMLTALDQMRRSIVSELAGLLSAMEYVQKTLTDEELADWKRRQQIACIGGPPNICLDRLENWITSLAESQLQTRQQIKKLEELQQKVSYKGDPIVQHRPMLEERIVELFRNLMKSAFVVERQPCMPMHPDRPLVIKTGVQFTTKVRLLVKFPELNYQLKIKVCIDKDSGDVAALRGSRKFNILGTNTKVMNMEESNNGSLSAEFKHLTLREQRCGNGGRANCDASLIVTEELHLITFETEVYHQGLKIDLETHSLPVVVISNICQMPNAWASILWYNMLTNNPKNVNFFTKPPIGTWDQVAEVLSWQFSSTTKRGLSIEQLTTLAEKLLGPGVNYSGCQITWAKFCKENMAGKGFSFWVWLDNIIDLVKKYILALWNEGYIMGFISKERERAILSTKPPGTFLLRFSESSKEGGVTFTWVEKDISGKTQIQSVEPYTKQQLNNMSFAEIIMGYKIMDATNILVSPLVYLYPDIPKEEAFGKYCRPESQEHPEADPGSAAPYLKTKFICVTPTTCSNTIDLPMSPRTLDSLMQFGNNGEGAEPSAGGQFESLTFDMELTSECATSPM
Chain of Histone deacetylase 1 (Q13547 whole entry): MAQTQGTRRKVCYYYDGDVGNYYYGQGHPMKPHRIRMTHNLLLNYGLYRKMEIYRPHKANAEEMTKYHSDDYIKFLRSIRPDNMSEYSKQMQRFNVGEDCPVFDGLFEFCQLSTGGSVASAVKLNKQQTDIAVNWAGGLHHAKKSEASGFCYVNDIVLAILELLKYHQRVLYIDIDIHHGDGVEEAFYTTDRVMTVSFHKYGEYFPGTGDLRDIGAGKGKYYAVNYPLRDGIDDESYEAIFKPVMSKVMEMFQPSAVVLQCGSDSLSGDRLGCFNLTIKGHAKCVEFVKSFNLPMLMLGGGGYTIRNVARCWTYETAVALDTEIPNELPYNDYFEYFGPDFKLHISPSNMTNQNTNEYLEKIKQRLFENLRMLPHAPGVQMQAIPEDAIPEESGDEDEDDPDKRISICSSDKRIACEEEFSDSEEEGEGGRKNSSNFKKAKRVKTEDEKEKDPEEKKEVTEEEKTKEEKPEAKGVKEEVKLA
Chain of Class 1 histone deacetylase (Homo sapiens) (O15379 whole entry, looked up): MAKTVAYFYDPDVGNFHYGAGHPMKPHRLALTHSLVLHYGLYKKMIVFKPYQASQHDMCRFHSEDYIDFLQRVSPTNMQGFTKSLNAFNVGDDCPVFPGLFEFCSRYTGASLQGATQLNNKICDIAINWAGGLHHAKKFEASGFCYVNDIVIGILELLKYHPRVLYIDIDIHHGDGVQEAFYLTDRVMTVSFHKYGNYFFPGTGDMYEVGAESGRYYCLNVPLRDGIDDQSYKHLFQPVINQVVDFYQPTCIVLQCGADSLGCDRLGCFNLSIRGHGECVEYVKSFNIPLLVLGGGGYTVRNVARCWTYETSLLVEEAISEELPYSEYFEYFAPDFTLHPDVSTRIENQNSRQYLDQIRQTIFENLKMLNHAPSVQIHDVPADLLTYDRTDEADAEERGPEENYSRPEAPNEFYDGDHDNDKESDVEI
Chain of Class 1 histone deacetylase (Homo sapiens) (Q13547 whole entry, looked up): as the sequence (Q13547 whole entry) above
Chain of Class 1 histone deacetylase (Homo sapiens) (Q92769 whole entry, looked up): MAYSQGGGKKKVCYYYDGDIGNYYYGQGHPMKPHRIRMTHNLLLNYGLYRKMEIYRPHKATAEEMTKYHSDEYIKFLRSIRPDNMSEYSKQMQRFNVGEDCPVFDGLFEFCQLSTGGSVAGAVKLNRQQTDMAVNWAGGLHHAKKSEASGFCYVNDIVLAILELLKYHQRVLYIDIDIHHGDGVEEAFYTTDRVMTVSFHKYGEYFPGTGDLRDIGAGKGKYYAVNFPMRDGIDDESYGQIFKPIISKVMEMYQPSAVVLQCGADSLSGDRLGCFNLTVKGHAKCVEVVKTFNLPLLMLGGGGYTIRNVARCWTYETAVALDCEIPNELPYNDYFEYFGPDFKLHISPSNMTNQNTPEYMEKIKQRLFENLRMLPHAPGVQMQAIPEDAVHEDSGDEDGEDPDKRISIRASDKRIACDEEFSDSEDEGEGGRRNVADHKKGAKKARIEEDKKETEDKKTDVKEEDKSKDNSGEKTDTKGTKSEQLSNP
Chain of Class 1 histone deacetylase (Homo sapiens) (Q9BY41 whole entry, looked up): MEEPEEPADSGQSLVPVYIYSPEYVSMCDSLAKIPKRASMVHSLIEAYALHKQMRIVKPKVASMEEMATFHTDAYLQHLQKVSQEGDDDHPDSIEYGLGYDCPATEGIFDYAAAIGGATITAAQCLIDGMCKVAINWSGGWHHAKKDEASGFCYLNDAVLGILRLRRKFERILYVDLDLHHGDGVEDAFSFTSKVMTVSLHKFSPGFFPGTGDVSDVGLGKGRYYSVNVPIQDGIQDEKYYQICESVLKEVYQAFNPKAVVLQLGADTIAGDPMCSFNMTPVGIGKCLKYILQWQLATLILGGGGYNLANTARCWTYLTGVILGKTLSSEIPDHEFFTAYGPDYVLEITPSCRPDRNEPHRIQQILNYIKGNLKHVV
Chain of Histone deacetylase 2 (Q92769 whole entry): as the sequence (Q92769 whole entry, looked up) above
Chain of Signal transducer and activator of transcription 6 (P42226 whole entry): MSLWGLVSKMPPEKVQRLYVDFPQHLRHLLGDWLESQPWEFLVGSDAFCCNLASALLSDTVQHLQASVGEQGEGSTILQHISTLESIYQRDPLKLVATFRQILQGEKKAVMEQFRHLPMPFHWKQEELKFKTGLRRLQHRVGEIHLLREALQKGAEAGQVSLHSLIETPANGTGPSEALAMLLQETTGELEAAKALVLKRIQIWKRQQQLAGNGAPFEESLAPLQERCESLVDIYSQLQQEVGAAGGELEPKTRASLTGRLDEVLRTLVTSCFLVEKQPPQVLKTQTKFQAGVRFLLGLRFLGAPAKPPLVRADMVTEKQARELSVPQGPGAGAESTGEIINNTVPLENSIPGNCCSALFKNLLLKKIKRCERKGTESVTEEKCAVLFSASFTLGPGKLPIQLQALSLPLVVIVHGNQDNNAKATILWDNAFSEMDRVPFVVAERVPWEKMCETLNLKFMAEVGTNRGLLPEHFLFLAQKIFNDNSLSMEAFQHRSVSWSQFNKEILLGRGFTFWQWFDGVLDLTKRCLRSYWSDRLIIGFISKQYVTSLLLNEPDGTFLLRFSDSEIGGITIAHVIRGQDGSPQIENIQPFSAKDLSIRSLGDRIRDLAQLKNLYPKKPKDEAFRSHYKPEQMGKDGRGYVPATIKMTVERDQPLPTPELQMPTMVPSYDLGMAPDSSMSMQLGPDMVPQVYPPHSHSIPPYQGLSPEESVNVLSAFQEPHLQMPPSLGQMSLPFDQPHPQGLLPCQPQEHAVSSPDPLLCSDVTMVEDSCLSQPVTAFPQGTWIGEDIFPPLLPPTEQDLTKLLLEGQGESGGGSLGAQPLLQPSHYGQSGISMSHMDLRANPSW
Chain of Histone deacetylase 9 (Q9UKV0 whole entry): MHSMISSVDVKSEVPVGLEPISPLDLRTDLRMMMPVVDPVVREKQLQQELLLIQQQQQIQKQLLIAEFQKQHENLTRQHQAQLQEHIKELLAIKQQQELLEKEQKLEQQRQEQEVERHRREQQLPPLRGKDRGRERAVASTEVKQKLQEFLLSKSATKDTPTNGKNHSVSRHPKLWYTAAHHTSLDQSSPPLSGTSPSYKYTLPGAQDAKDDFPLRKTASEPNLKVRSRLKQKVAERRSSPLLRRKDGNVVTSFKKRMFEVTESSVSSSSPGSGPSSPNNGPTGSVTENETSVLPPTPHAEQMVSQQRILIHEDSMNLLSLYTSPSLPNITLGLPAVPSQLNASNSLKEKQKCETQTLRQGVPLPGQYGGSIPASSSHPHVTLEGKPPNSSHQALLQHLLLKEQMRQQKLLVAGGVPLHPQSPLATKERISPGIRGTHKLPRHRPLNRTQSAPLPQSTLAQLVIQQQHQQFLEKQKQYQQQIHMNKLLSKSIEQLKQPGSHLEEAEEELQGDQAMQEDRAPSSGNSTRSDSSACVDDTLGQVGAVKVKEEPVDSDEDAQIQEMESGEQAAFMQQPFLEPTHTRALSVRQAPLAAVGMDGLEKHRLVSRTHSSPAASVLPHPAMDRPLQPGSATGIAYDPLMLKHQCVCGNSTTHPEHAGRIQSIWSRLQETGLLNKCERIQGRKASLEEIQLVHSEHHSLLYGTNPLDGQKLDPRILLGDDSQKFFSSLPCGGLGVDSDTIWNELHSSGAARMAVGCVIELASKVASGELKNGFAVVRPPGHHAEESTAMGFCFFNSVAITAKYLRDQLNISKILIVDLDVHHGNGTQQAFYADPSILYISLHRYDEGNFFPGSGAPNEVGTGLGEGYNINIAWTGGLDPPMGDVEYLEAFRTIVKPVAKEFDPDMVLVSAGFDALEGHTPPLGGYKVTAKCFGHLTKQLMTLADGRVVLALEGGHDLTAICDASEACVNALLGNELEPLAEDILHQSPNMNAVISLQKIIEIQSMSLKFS

## C=C1C(=O)O[C@@H]2C[C@@]3(C)CC[C@@H](OC(=O)[C@H](C)NC(=O)c4ccc(/C=C/C(=O)NO)cc4)C(=C)[C@@H]3C[C@H]12
Histone deacetylase 1
  IC50: 0.062 µM
Histone deacetylase 2
  IC50: 0.0526 µM
Histone deacetylase 7
  IC50: > 10 µM
Histone deacetylase 9
  IC50: > 10 µM
[1]
  Kd: 2.52 µM
[2]
  Kd: Not Active
[3]
  Kd: Not Active
[4]
  IC50: 0.35 µM
[4]; time 1.5 hrs
  Activity: Dose-Dependent Effect
A549 [5]
  IC50: 0.12 µM
HeLa [6]
  IC50: 0.13 µM
HepG2
  IC50: 0.26 µM
[7]
  inhibition: Active
A549 [8]
  Activity: Active
A549 [9]
  Activity: Active
A549 [10]
  Activity: Active
A549 [11]
  viability at 2 µM: 82.5%
A549 [12]
  Activity: 15%
A549 [13]
  Activity: 40%
A549 [14]
  Activity: 70.7%
[15]
  Activity: Non-Toxic
[16]
  Activity: Non-Toxic
A549 [17]
  IC50: 0.069 µM
HCT-116
  IC50: 0.023 µM
HeLa [18]
  IC50: 0.072 µM
[19]
  Drug uptake: Active
[20]
  Drug uptake: Active
[21]
  Drug uptake: Active
A549 [22]
  Activity: Active
A549 [23]
  Activity: Active
